The values that follow come from the OligoGym collection.

Oligonucleotides are given in HELM: sugar(base)linkage, 5' to 3'; d 2'-deoxyribose, r ribose, m 2'-O-methylribose, p phosphate. ss, as = sense and antisense strand
Note: test concentration or dose not given here.

In this data set the target is Mmp7 (rat). Kind of data set: reporter assay of Huesken 2005. The conditions noted are these: siRNA. For orientation: A reporter such as luciferase makes a cellular process visible.
With “RNA1{r(G)p.r(C)p.r(C)p.r(A)p.r(C)p.r(U)p.r(C)p.r(A)p.r(U)p.r(G)p.r(A)p.r(A)p.r(C)p.r(U)p.r(U)p.r(G)p.r(G)p.r(C)p.r(C)p.d(T)p.d(T)}|RNA2{r(G)p.r(G)p.r(C)p.r(C)p.r(A)p.r(A)p.r(G)p.r(U)p.r(U)p.r(C)p.r(A)p.r(U)p.r(G)p.r(A)p.r(G)p.r(U)p.r(G)p.r(G)p.r(C)p.d(A)p.d(A)}$$$RNA1{StrandType:ss}|RNA2{StrandType:as}$”, the normalised inhibition (eCFP-eYFP dual reporter) was determined as 62.2%.
As to “RNA1{r(G)p.r(C)p.r(C)p.r(A)p.r(C)p.r(U)p.r(C)p.r(U)p.r(C)p.r(U)p.r(G)p.r(G)p.r(G)p.r(U)p.r(C)p.r(U)p.r(G)p.r(G)p.r(G)p.d(T)p.d(T)}|RNA2{r(C)p.r(C)p.r(C)p.r(A)p.r(G)p.r(A)p.r(C)p.r(C)p.r(C)p.r(A)p.r(G)p.r(A)p.r(G)p.r(A)p.r(G)p.r(U)p.r(G)p.r(G)p.r(C)p.d(C)p.d(A)}$$$RNA1{StrandType:ss}|RNA2{StrandType:as}$”, the normalised inhibition (eCFP-eYFP dual reporter) amounted to 63.3%.
Consider “RNA1{r(G)p.r(C)p.r(C)p.r(A)p.r(C)p.r(U)p.r(G)p.r(U)p.r(C)p.r(C)p.r(C)p.r(A)p.r(G)p.r(G)p.r(A)p.r(A)p.r(G)p.r(C)p.r(C)p.d(T)p.d(T)}|RNA2{r(G)p.r(G)p.r(C)p.r(U)p.r(U)p.r(C)p.r(C)p.r(U)p.r(G)p.r(G)p.r(G)p.r(A)p.r(C)p.r(A)p.r(G)p.r(U)p.r(G)p.r(G)p.r(C)p.d(A)p.d(G)}$$$RNA1{StrandType:ss}|RNA2{StrandType:as}$”, for which the normalised inhibition (eCFP-eYFP dual reporter) worked out at 66%.
For “RNA1{r(G)p.r(C)p.r(C)p.r(A)p.r(G)p.r(A)p.r(U)p.r(G)p.r(U)p.r(U)p.r(G)p.r(C)p.r(A)p.r(G)p.r(A)p.r(A)p.r(U)p.r(U)p.r(C)p.d(T)p.d(T)}|RNA2{r(G)p.r(A)p.r(A)p.r(U)p.r(U)p.r(C)p.r(U)p.r(G)p.r(C)p.r(A)p.r(A)p.r(C)p.r(A)p.r(U)p.r(C)p.r(U)p.r(G)p.r(G)p.r(C)p.d(A)p.d(C)}$$$RNA1{StrandType:ss}|RNA2{StrandType:as}$” the value was 100%.
On to “RNA1{r(G)p.r(C)p.r(C)p.r(A)p.r(G)p.r(G)p.r(C)p.r(C)p.r(U)p.r(C)p.r(G)p.r(G)p.r(C)p.r(G)p.r(G)p.r(A)p.r(G)p.r(A)p.r(U)p.d(T)p.d(T)}|RNA2{r(A)p.r(U)p.r(C)p.r(U)p.r(C)p.r(C)p.r(G)p.r(C)p.r(C)p.r(G)p.r(A)p.r(G)p.r(G)p.r(C)p.r(C)p.r(U)p.r(G)p.r(G)p.r(C)p.d(C)p.d(C)}$$$RNA1{StrandType:ss}|RNA2{StrandType:as}$”, for which the normalised inhibition (eCFP-eYFP dual reporter) turned out to be 36.1%.
For “RNA1{r(G)p.r(C)p.r(C)p.r(U)p.r(C)p.r(G)p.r(G)p.r(C)p.r(G)p.r(G)p.r(A)p.r(G)p.r(A)p.r(U)p.r(G)p.r(C)p.r(U)p.r(C)p.r(A)p.d(T)p.d(T)}|RNA2{r(U)p.r(G)p.r(A)p.r(G)p.r(C)p.r(A)p.r(U)p.r(C)p.r(U)p.r(C)p.r(C)p.r(G)p.r(C)p.r(C)p.r(G)p.r(A)p.r(G)p.r(G)p.r(C)p.d(C)p.d(T)}$$$RNA1{StrandType:ss}|RNA2{StrandType:as}$” the value was 90.2%.
For “RNA1{r(G)p.r(C)p.r(C)p.r(U)p.r(U)p.r(U)p.r(G)p.r(C)p.r(A)p.r(C)p.r(C)p.r(G)p.r(G)p.r(G)p.r(G)p.r(C)p.r(C)p.r(A)p.r(G)p.d(T)p.d(T)}|RNA2{r(C)p.r(U)p.r(G)p.r(G)p.r(C)p.r(C)p.r(C)p.r(C)p.r(G)p.r(G)p.r(U)p.r(G)p.r(C)p.r(A)p.r(A)p.r(A)p.r(G)p.r(G)p.r(C)p.d(A)p.d(T)}$$$RNA1{StrandType:ss}|RNA2{StrandType:as}$” the value was 32.6%.
Regarding “RNA1{r(G)p.r(C)p.r(G)p.r(G)p.r(A)p.r(G)p.r(A)p.r(U)p.r(G)p.r(C)p.r(U)p.r(C)p.r(A)p.r(C)p.r(U)p.r(U)p.r(U)p.r(G)p.r(A)p.d(T)p.d(T)}|RNA2{r(U)p.r(C)p.r(A)p.r(A)p.r(A)p.r(G)p.r(U)p.r(G)p.r(A)p.r(G)p.r(C)p.r(A)p.r(U)p.r(C)p.r(U)p.r(C)p.r(C)p.r(G)p.r(C)p.d(C)p.d(G)}$$$RNA1{StrandType:ss}|RNA2{StrandType:as}$”, the normalised inhibition (eCFP-eYFP dual reporter) was found to be 108%.
For the substance “RNA1{r(G)p.r(C)p.r(U)p.r(C)p.r(A)p.r(C)p.r(U)p.r(U)p.r(U)p.r(G)p.r(A)p.r(C)p.r(A)p.r(A)p.r(G)p.r(G)p.r(A)p.r(U)p.r(G)p.d(T)p.d(T)}|RNA2{r(C)p.r(A)p.r(U)p.r(C)p.r(C)p.r(U)p.r(U)p.r(G)p.r(U)p.r(C)p.r(A)p.r(A)p.r(A)p.r(G)p.r(U)p.r(G)p.r(A)p.r(G)p.r(C)p.d(A)p.d(T)}$$$RNA1{StrandType:ss}|RNA2{StrandType:as}$”, the normalised inhibition (eCFP-eYFP dual reporter) turned out to be 102%.
For “RNA1{r(G)p.r(C)p.r(U)p.r(G)p.r(C)p.r(C)p.r(U)p.r(G)p.r(G)p.r(C)p.r(C)p.r(C)p.r(U)p.r(G)p.r(C)p.r(C)p.r(A)p.r(C)p.r(U)p.d(T)p.d(T)}|RNA2{r(A)p.r(G)p.r(U)p.r(G)p.r(G)p.r(C)p.r(A)p.r(G)p.r(G)p.r(G)p.r(C)p.r(C)p.r(A)p.r(G)p.r(G)p.r(C)p.r(A)p.r(G)p.r(C)p.d(C)p.d(T)}$$$RNA1{StrandType:ss}|RNA2{StrandType:as}$” the value was 64.3%; for “RNA1{r(G)p.r(C)p.r(U)p.r(U)p.r(C)p.r(G)p.r(C)p.r(A)p.r(A)p.r(G)p.r(G)p.r(G)p.r(G)p.r(A)p.r(G)p.r(A)p.r(U)p.r(C)p.r(A)p.d(T)p.d(T)}|RNA2{r(U)p.r(G)p.r(A)p.r(U)p.r(C)p.r(U)p.r(C)p.r(C)p.r(C)p.r(C)p.r(U)p.r(U)p.r(G)p.r(C)p.r(G)p.r(A)p.r(A)p.r(G)p.r(C)p.d(C)p.d(A)}$$$RNA1{StrandType:ss}|RNA2{StrandType:as}$”, 105%.
With “RNA1{r(G)p.r(G)p.r(A)p.r(A)p.r(A)p.r(C)p.r(A)p.r(C)p.r(U)p.r(C)p.r(U)p.r(A)p.r(G)p.r(G)p.r(C)p.r(C)p.r(A)p.r(U)p.r(G)p.d(T)p.d(T)}|RNA2{r(C)p.r(A)p.r(U)p.r(G)p.r(G)p.r(C)p.r(C)p.r(U)p.r(A)p.r(G)p.r(A)p.r(G)p.r(U)p.r(G)p.r(U)p.r(U)p.r(U)p.r(C)p.r(C)p.d(T)p.d(G)}$$$RNA1{StrandType:ss}|RNA2{StrandType:as}$”, the normalised inhibition (eCFP-eYFP dual reporter) was 89.7%.
Consider “RNA1{r(G)p.r(G)p.r(A)p.r(A)p.r(A)p.r(U)p.r(U)p.r(U)p.r(U)p.r(A)p.r(C)p.r(C)p.r(U)p.r(U)p.r(C)p.r(A)p.r(C)p.r(G)p.r(A)p.d(T)p.d(T)}|RNA2{r(U)p.r(C)p.r(G)p.r(U)p.r(G)p.r(A)p.r(A)p.r(G)p.r(G)p.r(U)p.r(A)p.r(A)p.r(A)p.r(A)p.r(U)p.r(U)p.r(U)p.r(C)p.r(C)p.d(T)p.d(A)}$$$RNA1{StrandType:ss}|RNA2{StrandType:as}$”, for which the normalised inhibition (eCFP-eYFP dual reporter) came out at 127%.
For “RNA1{r(G)p.r(G)p.r(A)p.r(A)p.r(C)p.r(A)p.r(G)p.r(G)p.r(C)p.r(G)p.r(C)p.r(A)p.r(G)p.r(A)p.r(A)p.r(U)p.r(U)p.r(A)p.r(U)p.d(T)p.d(T)}|RNA2{r(A)p.r(U)p.r(A)p.r(A)p.r(U)p.r(U)p.r(C)p.r(U)p.r(G)p.r(C)p.r(G)p.r(C)p.r(C)p.r(U)p.r(G)p.r(U)p.r(U)p.r(C)p.r(C)p.d(C)p.d(A)}$$$RNA1{StrandType:ss}|RNA2{StrandType:as}$” the value was 104%.
Take “RNA1{r(G)p.r(G)p.r(A)p.r(A)p.r(G)p.r(C)p.r(C)p.r(G)p.r(G)p.r(A)p.r(G)p.r(A)p.r(A)p.r(G)p.r(U)p.r(G)p.r(A)p.r(C)p.r(C)p.d(T)p.d(T)}|RNA2{r(G)p.r(G)p.r(U)p.r(C)p.r(A)p.r(C)p.r(U)p.r(U)p.r(C)p.r(U)p.r(C)p.r(C)p.r(G)p.r(G)p.r(C)p.r(U)p.r(U)p.r(C)p.r(C)p.d(T)p.d(G)}$$$RNA1{StrandType:ss}|RNA2{StrandType:as}$”: the normalised inhibition (eCFP-eYFP dual reporter) stood at 83%.
On to “RNA1{r(G)p.r(G)p.r(A)p.r(C)p.r(A)p.r(A)p.r(A)p.r(C)p.r(U)p.r(G)p.r(A)p.r(G)p.r(G)p.r(G)p.r(A)p.r(A)p.r(A)p.r(U)p.r(G)p.d(T)p.d(T)}|RNA2{r(C)p.r(A)p.r(U)p.r(U)p.r(U)p.r(C)p.r(C)p.r(C)p.r(U)p.r(C)p.r(A)p.r(G)p.r(U)p.r(U)p.r(U)p.r(G)p.r(U)p.r(C)p.r(C)p.d(A)p.d(C)}$$$RNA1{StrandType:ss}|RNA2{StrandType:as}$”, for which the normalised inhibition (eCFP-eYFP dual reporter) amounted to 83%.
For “RNA1{r(G)p.r(G)p.r(A)p.r(C)p.r(G)p.r(G)p.r(A)p.r(U)p.r(G)p.r(G)p.r(U)p.r(G)p.r(A)p.r(G)p.r(G)p.r(A)p.r(C)p.r(U)p.r(C)p.d(T)p.d(T)}|RNA2{r(G)p.r(A)p.r(G)p.r(U)p.r(C)p.r(C)p.r(U)p.r(C)p.r(A)p.r(C)p.r(C)p.r(A)p.r(U)p.r(C)p.r(C)p.r(G)p.r(U)p.r(C)p.r(C)p.d(A)p.d(G)}$$$RNA1{StrandType:ss}|RNA2{StrandType:as}$” the value was 81.1%; for “RNA1{r(G)p.r(G)p.r(A)p.r(C)p.r(U)p.r(C)p.r(A)p.r(G)p.r(G)p.r(C)p.r(G)p.r(U)p.r(G)p.r(A)p.r(A)p.r(C)p.r(U)p.r(U)p.r(C)p.d(T)p.d(T)}|RNA2{r(G)p.r(A)p.r(A)p.r(G)p.r(U)p.r(U)p.r(C)p.r(A)p.r(C)p.r(G)p.r(C)p.r(C)p.r(U)p.r(G)p.r(A)p.r(G)p.r(U)p.r(C)p.r(C)p.d(T)p.d(C)}$$$RNA1{StrandType:ss}|RNA2{StrandType:as}$”, 70.4%; for “RNA1{r(G)p.r(G)p.r(A)p.r(G)p.r(A)p.r(C)p.r(U)p.r(G)p.r(G)p.r(A)p.r(A)p.r(A)p.r(G)p.r(C)p.r(U)p.r(G)p.r(U)p.r(C)p.r(C)p.d(T)p.d(T)}|RNA2{r(G)p.r(G)p.r(A)p.r(C)p.r(A)p.r(G)p.r(C)p.r(U)p.r(U)p.r(U)p.r(C)p.r(C)p.r(A)p.r(G)p.r(U)p.r(C)p.r(U)p.r(C)p.r(C)p.d(G)p.d(G)}$$$RNA1{StrandType:ss}|RNA2{StrandType:as}$”, 88.7%.
For “RNA1{r(G)p.r(G)p.r(A)p.r(G)p.r(U)p.r(A)p.r(U)p.r(G)p.r(C)p.r(A)p.r(A)p.r(A)p.r(U)p.r(C)p.r(C)p.r(C)p.r(A)p.r(C)p.r(U)p.d(T)p.d(T)}|RNA2{r(A)p.r(G)p.r(U)p.r(G)p.r(G)p.r(G)p.r(A)p.r(U)p.r(U)p.r(U)p.r(G)p.r(C)p.r(A)p.r(U)p.r(A)p.r(C)p.r(U)p.r(C)p.r(C)p.d(A)p.d(C)}$$$RNA1{StrandType:ss}|RNA2{StrandType:as}$” the value was 96.7%.
